Values after ≈ are worked out from the molar mass of the structure shown.
How the values were obtained:
[1] = Aotus, 10 mg/kg/day oral x7
P. falciparum W2 = assay: In vitro antimalarial activity against P. falciparum W2; format: cell-based, Plasmodium falciparum
Experimental: (§1) The in vitro activities of AAQMs against P. falciparum strains W2, D6, TM91C235 and TM90C2A were evaluated using the method of Desjardins et al. as modified by Milhous et al. W2 is chloroquine resistant and mefloquine sensitive, D6 is chloroquine sensitive but naturally less susceptible to mefloquine, TM91C235 is resistant to mefloquine, chloroquine and pyrimethamine as is TM90C2A, however this latter parasite is a two pfmdr1 copy strain. We routinely run mefloquine in this screen as a control to ensure assay validity.

[2] = system: Balb/c 3T3 mouse fibroblast cells; assay: 3T3 neutral red uptake (NRU) phototoxicity test; format: cell-based
Text: A pharmacophore for phototoxicity was developed to be used as an in silico screening tool to determine the minimum phototoxic concentration for a number of AAQMS (WR069878 and those indicated in Table 5). Minimum phototoxic concentration in a yeast assay for a number of AAQMS, as per Ison et al.; Phototoxicity of Quinoline methanols and other drugs in mice and yeast; J. Invest. Dermatol. (52)193-198 (1969) were used to generate a three-dimensional pharmacophore model using the HypoGen algorithm of the […]® (Accelrys software Inc.) methodology as per Bhattacharjee et al.; A 3D QSAR pharmacophore model and quantum chemical structure—activity analysis of chloroquine(CQ)-resistance reversal; J. Chem Inf. Comput Sci. (42) 1212-1220 (2002), and Dow et al.; as discussed in Antimicrob Agents Chemother. (48)2624-2632 (2004), cited above, both Bhattacharjee et al. and Dow et al, incorporated herein, by reference. The structures of clinically used quinoline methanols were mapped onto the pharmacophores and estimated values for minimum phototoxic concentration were generated. The 3T3 neutral red uptake (NRU) phototoxicity test, conducted by MB Research Laboratories (Spinnerstown, Pa.), was used to identify quinoline methanols (WR069878 and those in Table 5) that have the potential to exert in vivo phototoxicity after systemic application. Briefly, the central 60 wells of two 96-well plates per AAQM were seeded with Balb/c 3T3 mouse fibroblast cells and maintained in culture for 24 hrs. These plates were then pre-incubated with a range of eight different concentrations of test compound (six wells per concentration) for one hour. Next, one plate was treated with a UVA dose of 5 J/cm2 by irradiating for 50 min at 1.7 mW/cm2, whereas the other plate remained non-treated and in the dark. Next, the treatment medium was replaced with culture medium and cell viability was determined after 24 hrs by measuring neutral red uptake for 3 hrs. Finally, the 3T3 NRU Phototox Prediction Software (version 2.0, ZEBET) was used to calculate EC50 values and Photo-Irritant Factors (PIF) for each compound. […]

P. falciparum TM90C2A = assay: In vitro antimalarial activity against P. falciparum TM90C2A; format: cell-based, Plasmodium falciparum
Experimental: as §1

- Mean peak concentration [1]: 65 ng/mL
- Plasma conc on day 1 (ng/ml) 2 h ([1]; day 1, 2 h): 38 ng/mL
- Plasma conc on day 1 (ng/ml) 24 h ([1]; day 1, 24 h): 16 ng/mL
- Plasma conc. on day 7 (ng/ml) 2 h ([1]; day 7, 2 h): 91 ng/mL
- Plasma conc. on day 7 (ng/ml) 24 h ([1]; day 7, 24 h): 40 ng/mL
- IC90 against W2 (P. falciparum W2): 0.49 ng/mL (≈ 0.00107 µM)
- IC90 against TM90C2A (P. falciparum TM90C2A): 16 ng/mL (≈ 0.0348 µM)
Compound: CCCCN(CCCC)CC(O)c1cc(-c2ccc(Cl)cc2)nc2cc(Cl)c(C)cc12 (centres unmarked) [WR069878]
- Photo Irritant Factor (PIF) [2]: > 100
